Type in all cases: cell-based
The test system of assay [1] is Candida albicans ATCC 10231. Nature of the assay: MBC against Candida albicans. As to conditions: substance alone. On the procedure: The Gardnerella vaginalis ATCC 14018 strain, the Neisseria gonorrhoeae ATCC 43069 strain and the Candida albicans ATCC 10231 strain were also used for the experiment. [table] The other assayed microbial strains were cultured in the liquid media and in the incubation conditions specified in table A, following the operating procedure described above. Immediately after determining the value of the MIC for each substance, a volume equivalent to 50 μl was taken from each well and streaked on the surface of plates containing the solid medium. The plates were subsequently incubated at the conditions indicated for each microbial strain. After incubation at 37° C. for 24 hours, the number of colonies grown on the medium surface was counted thus determining the number of bacteria that survived after 24 hours of contact with the substance at the concentration present in the well. The MBC value defined as the lowest concentration of each substance capable of reducing the bacterial load by 99.9% in the previously defined assay conditions was determined through comparison between the number of bacteria that survived in each well and that of the bacterial inoculum deposited initially.

The next assay deals with vaginal lactobacilli. Nature of the assay: Activity on vaginal lactobacilli compared with the pathogen strains. The following applies: lactobacilli versus G. vaginalis. The protocol: By comparison, the lactobacillus strains dominating in the physiological colonization of the vaginal mucosa typical in healthy women were also tested. Thus, such explorative activity was carried out on such strains with the aim of evaluating a selectivity of the compounds of the invention with respect to the pathogenic microorganisms with respect to the lactobacillus bacterial flora. Immediately after determining the value of the MIC for each substance, a volume equivalent to 50 μl was taken from each well and streaked on the surface of plates containing the solid medium. The plates were subsequently incubated at the conditions indicated for each microbial strain. After incubation at 37° C. for 24 hours, the number of colonies grown on the medium surface was counted thus determining the number of bacteria that survived after 24 hours of contact with the substance at the concentration present in the well. The MBC value defined as the lowest concentration of each substance capable of reducing the bacterial load by 99.9% in the previously defined assay conditions was determined through comparison between the number of bacteria that survived in each well and that of the bacterial inoculum deposited initially.

Assay [2] relates to Neisseria gonorrhoeae ATCC 43069. Nature of the assay: MIC against Neisseria gonorrhoeae. The following applies: substance alone. The protocol:
The Gardnerella vaginalis ATCC 14018 strain, the Neisseria gonorrhoeae ATCC 43069 strain and the Candida albicans ATCC 10231 strain were also used for the experiment.
The other assayed microbial strains were cultured in the liquid media and in the incubation conditions specified in table A, following the operating procedure described above.
The assay was carried out in 96-well microtitre plates. 50 μl of substance solution at the “mother” concentration alongside 50 μl of liquid medium at double concentration were deposited in the first well of each of the 8 rows while 50 μl of liquid medium at normal concentration were deposited in the remaining 11 wells. Starting from the first well of each row, 50 μl volumes were transferred from each well to the subsequent one 10 times, thus obtaining a series of 11 dilutions after doubling. The 12th well of each row was kept substance-free as a function of positive control of the bacterial growth.
Subsequently, 50 μl of diluted bacterial inoculum as specified previously were deposited in all wells of the plate, except for the 11th of each row. Only the liquid medium at single concentration but bacteria-free, was deposited in the 11th well, with the aim of providing negative control for each row. The described scheme was used for the assay with each of the assayed microbial strains. […]

In assay [1], “lauryl glucoside/C12-C16 alkyl polyglucoside [Substance A2]” registered an MBC of 0.154%. For the same substance, the “MBC values in vaginal lactobacilli, times higher than those observed in G. vaginalis” value with vaginal lactobacilli is given as “about 15 times”. For the same substance, the MIC entry in assay [2] is “≦0.0012%”.

For the origin of these results see patent US20140051650A1, “VAGINAL COMPOSITIONS BASED ON ALKYL POLYGLUCOSIDES” (EFFIK S.A., priority 2011, published 2014).
